# pEC50: −log10 of the molar value. *1 amine or outer side, *2 acyl side, *3 side chain or, on linkers, in order; H or OH if unused. Where a SMILES comes first, the peptide text is derived from it. Where no end group is shown, it is not given here. Side-chain parts run from the residue outwards. [ ]: non-standard residue; d: D form. The star is where a group is joined. X1 = O=C(O)CCCCCCCCCCCCCCCCCCC(=O)NCC1CCC(C(=O)*)CC1; C18 diacid = O=C(O)CCCCCCCCCCCCCCCCC(=O)*; γGlu = O=C(O)[C@H](CCC(=O)[*:2])N[*:1]; Nle = CCCC[C@H](N)C(=O)O; AEEA = NCCOCCOCC(=O)O; Aib = CC(C)(N)C(=O)O
# What was measured:
# [1] = Pharmacokinetic study in minipigs, terminal half-life after i.v. administration; settings: female, Göttingen, minipig, plasma, iv, 5 nmol/kg
# Procedure: Pharmacokinetic Study in Minipigs
# The purpose of this study is to determine the half-life in vivo of the derivatives of the present invention after i.v. administration to minipigs, i.e. the prolongation of their time in the body and thereby their time of action. This is done in a pharmacokinetic (PK) study, where the terminal half-life of the derivative in question is determined. By terminal half-life is generally meant the period of time it takes to halve a certain plasma concentration, measured after the initial distribution phase.
# Female Göttingen minipigs were obtained from Ellegaard Göttingen Minipigs (Dalmose, Denmark) approximately 7-14 months of age and weighing from approximately 16-35 kg were used in the studies. The minipigs were housed individually and fed restrictedly once daily with SDS minipig diet (Special Diets Services, Essex, UK).
# After at 3 weeks of acclimatisation two permanent central venous catheters were implanted in vena cava caudalis in each animal. The animals were allowed 1 week recovery after the surgery, and were then used for repeated pharmacokinetic studies with a suitable wash-out period between successive derivative dosing.
# Blood samples (for example 0.8 ml) were collected in EDTA buffer (8 mM) and then centrifuged at 4° C. and 1942G for 10 minutes.
# Individual plasma concentration-time profiles were analysed by a non-compartmental model in Phoenix WinNonLin ver. […] (Pharsight Inc., Mountain View, Calif., USA), and the resulting terminal half-lives (harmonic mean) determined.
# human GIP receptor = target: T1, human GIP receptor (Homo sapiens, UniProt P48546); assay: In vitro potency, CRE luciferase reporter gene assay, whole BHK cells expressing human GIP receptor; format: cell-based; settings: 0.2% HSA
# T1 construct: expressed in transfected cells; host or cells: BHK cells (parent line BHKTS13), clone BHK CRE luc2P hGIPR clone #5
# T1 sequence (P48546 22-466): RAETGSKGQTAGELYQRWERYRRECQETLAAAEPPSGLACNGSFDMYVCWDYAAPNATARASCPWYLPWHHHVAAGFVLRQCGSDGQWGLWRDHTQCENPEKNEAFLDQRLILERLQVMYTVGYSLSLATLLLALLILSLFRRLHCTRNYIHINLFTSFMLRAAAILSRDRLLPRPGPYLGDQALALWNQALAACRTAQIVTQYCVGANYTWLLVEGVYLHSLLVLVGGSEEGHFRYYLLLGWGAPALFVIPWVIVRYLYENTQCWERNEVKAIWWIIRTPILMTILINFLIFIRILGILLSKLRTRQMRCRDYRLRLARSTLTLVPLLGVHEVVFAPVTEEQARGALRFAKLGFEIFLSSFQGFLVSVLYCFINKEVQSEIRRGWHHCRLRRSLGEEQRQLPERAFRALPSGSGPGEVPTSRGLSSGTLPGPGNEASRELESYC
# Procedure: In Vitro Potency (CRE Luciferase; Whole Cells)
# The in vitro potency is the measure of human GIP, GLP-1 or glucagon receptor activation, respectively, in a whole cell assay.
# In vitro potency was determined by measuring the response of the human GIP, GLP-1 or glucagon receptor in a reporter gene assay in individual cell lines. […] When the respective receptor is activated it results in the production of cAMP, which in turn results in the luciferase protein being expressed. When assay incubation is completed the luciferase substrate (luciferin) is added and the enzyme converts luciferin to oxyluciferin to produce bioluminescence. The luminescence is measured as the readout for the assay.
# The cells were derived from a clone containing the CRE luciferase element and were established by further transfection with the respective receptor to obtain the current clone.
# The cells were cultured at 5% CO2 in Cell Culture Medium. They were aliquoted and stored in liquid nitrogen. The cells were kept in passage and were seeded out the day before each assay.
# The Assay Buffer consisted of 1% ovalbumin and 0.1% Pluronic F-68 in Assay Medium with the addition of human serum albumin at twice the indicated concentrations.
# 1) Cells were plated at 5000 cells/well and incubated overnight.
# 2) Cells were washed three times in PBS.
# 3) Assay Medium (50 μl aliquot) with or without serum albumin was added to each well in the assay plate.
# 4) Stocks of the test compounds and reference compounds were diluted to a concentration of 0.2 μM in Assay Buffer. […] 8) The cells were washed three times with PBS plus some liquid in each well. 9) A 100 μl aliquot of steadylite plus reagent was added to each well of the assay plate (reagent was light sensitive). 10) Each assay plate was covered with aluminum foil to protect it from light and shaken for 30 min at room temperature. 11) Each assay plate was read in a microtiter plate reader. Calculations and Results
# The data from the microtiter plate reader was transferred to GraphPad Prism software. The software performs a non-linear regression (log(agonist) vs response).
# A minimum of two replicates was measured for each sample. The reported values are averages of the replicates.
Molecule,half-life [1] [h],pEC50 (human GIP receptor)
"CCCC[C@H](NC(=O)[C@H](C)NC(=O)[C@@H](NC(=O)[C@H](CO)NC(=O)[C@H](Cc1ccc(O)cc1)NC(=O)[C@H](CC(=O)O)NC(=O)[C@H](CO)NC(=O)[C@@H](NC(=O)[C@H](Cc1ccccc1)NC(=O)[C@@H](NC(=O)CNC(=O)[C@H](CCC(=O)O)NC(=O)C(C)(C)NC(=O)[C@@H](N)Cc1ccc(O)cc1)[C@@H](C)O)[C@@H](C)CC)[C@@H](C)CC)C(=O)N[C@@H](CC(=O)O)C(=O)N[C@@H](CCCCN)C(=O)N[C@H](C(=O)N[C@@H](Cc1c[nH]cn1)C(=O)N[C@@H](CCC(N)=O)C(=O)N[C@@H](CCC(N)=O)C(=O)N[C@@H](CC(=O)O)C(=O)N[C@@H](Cc1ccccc1)C(=O)N[C@H](C(=O)N[C@@H](CCCCNC(=O)CC[C@H](NC(=O)CC[C@H](NC(=O)CC[C@H](NC(=O)C1CCC(CNC(=O)CCCCCCCCCCCCCCCCCCC(=O)O)CC1)C(=O)O)C(=O)O)C(=O)O)C(=O)N[C@@H](Cc1c[nH]c2ccccc12)C(=O)N[C@@H](CC(C)C)C(=O)N[C@@H](CC(C)C)C(=O)N[C@@H](C)C(=O)N[C@@H](CCC(N)=O)C(=O)N[C@@H](CCCCN)C(=O)N1CCC[C@H]1C(N)=O)C(C)C)[C@@H](C)CC (stereo partly drawn) [Compound 27, N{Epsilon-24}-[(4S)-4-carboxy-4-[[(4S)-4-carboxy-4-[[(4S)-4-carboxy-4-[[4-[(19-carboxynonadecanoylamino)methyl]cyclohexanecarbonyl]amino]butanoyl]amino]-butanoyl]amino]butanoyl]-[Aib2,Nle14,Lys24,Pro31]-hGIP(1-31) amide] (H-Y[Aib]EGTFISDYSIA[Nle]DKIHQQDFVK([γGlu-γGlu-γGlu-X1])WLLAQKP-NH2)",147,
"CCCC[C@H](NC(=O)[C@H](C)NC(=O)[C@@H](NC(=O)[C@H](CO)NC(=O)[C@H](Cc1ccc(O)cc1)NC(=O)[C@H](CC(=O)O)NC(=O)[C@H](CO)NC(=O)[C@@H](NC(=O)[C@H](Cc1ccccc1)NC(=O)[C@@H](NC(=O)CNC(=O)[C@H](CCC(=O)O)NC(=O)[C@H](C)NC(=O)[C@@H](Cc1ccc(O)cc1)NC(C)=O)[C@@H](C)O)[C@@H](C)CC)[C@@H](C)CC)C(=O)N[C@@H](CC(=O)O)C(=O)N[C@@H](CCCCN)C(=O)N[C@H](C(=O)N[C@@H](CCCNC(=N)N)C(=O)N[C@@H](CCC(N)=O)C(=O)N[C@@H](CCC(N)=O)C(=O)N[C@@H](CC(=O)O)C(=O)N[C@@H](Cc1ccccc1)C(=O)N[C@H](C(=O)N[C@@H](CCCCNC(=O)CC[C@H](NC(=O)CC[C@H](NC(=O)CC[C@H](NC(=O)C1CCC(CNC(=O)CCCCCCCCCCCCCCCCCCC(=O)O)CC1)C(=O)O)C(=O)O)C(=O)O)C(=O)N[C@@H](Cc1c[nH]c2ccccc12)C(=O)N[C@@H](CC(C)C)C(=O)N[C@@H](CC(C)C)C(=O)N[C@@H](C)C(=O)N[C@@H](CCC(N)=O)C(=O)N[C@@H](CCCCN)C(=O)N1CCC[C@H]1C(N)=O)C(C)C)[C@@H](C)CC (stereo partly drawn) [Compound 28, N{1}-acetyl,N{Epsilon-24}-[(4S)-4-carboxy-4-[[(4S)-4-carboxy-4-[[(4S)-4-carboxy-4-[[4-[(19-carboxynonadecanoylamino)methyl]cyclohexanecarbonyl]amino]butanoyl]-amino]butanoyl]amino]butanoyl]-[D-Tyr1,Nle14,Arg18,Lys24,Pro31]-hGIP(1-31) amide] (Ac-[dY]AEGTFISDYSIA[Nle]DKIRQQDFVK([γGlu-γGlu-γGlu-X1])WLLAQKP-NH2)",104,
"CCCC[C@H](NC(=O)[C@H](C)NC(=O)[C@@H](NC(=O)[C@H](CO)NC(=O)[C@H](Cc1ccc(O)cc1)NC(=O)[C@H](CC(=O)O)NC(=O)[C@H](CO)NC(=O)[C@@H](NC(=O)[C@H](Cc1ccccc1)NC(=O)[C@@H](NC(=O)CNC(=O)[C@H](CCC(=O)O)NC(=O)C(C)(C)NC(=O)[C@@H](N)Cc1ccc(O)cc1)[C@@H](C)O)[C@@H](C)CC)[C@@H](C)CC)C(=O)N[C@@H](CC(=O)O)C(=O)N[C@@H](CCCCN)C(=O)N[C@H](C(=O)N[C@@H](CCCNC(=N)N)C(=O)N[C@@H](CCC(N)=O)C(=O)N[C@@H](CCC(N)=O)C(=O)N[C@@H](CC(=O)O)C(=O)N[C@@H](Cc1ccccc1)C(=O)N[C@H](C(=O)N[C@@H](CCCCNC(=O)CC[C@H](NC(=O)CC[C@H](NC(=O)CC[C@H](NC(=O)C1CCC(CNC(=O)CCCCCCCCCCCCCCCCCCC(=O)O)CC1)C(=O)O)C(=O)O)C(=O)O)C(=O)N[C@@H](Cc1c[nH]c2ccccc12)C(=O)N[C@@H](CC(C)C)C(=O)N[C@@H](CC(C)C)C(=O)N[C@@H](C)C(=O)N[C@@H](CCC(N)=O)C(=O)N[C@@H](CCCCN)C(=O)N1CCC[C@H]1C(N)=O)C(C)C)[C@@H](C)CC (stereo partly drawn) [Compound 26, N{Epsilon-24}-[(4S)-4-carboxy-4-[[(4S)-4-carboxy-4-[[(4S)-4-carboxy-4-[[4-[(19-carboxynonadecanoylamino)methyl]cyclohexanecarbonyl]amino]butanoyl]amino]-butanoyl]amino]butanoyl]-[Aib2,Nle14,Arg18,Lys24,Pro31]-hGIP(1-31) amide]",109,
"CCCC[C@H](NC(=O)[C@H](C)NC(=O)[C@@H](NC(=O)[C@H](CO)NC(=O)[C@H](Cc1ccc(O)cc1)NC(=O)[C@H](CC(=O)O)NC(=O)[C@H](CO)NC(=O)[C@@H](NC(=O)[C@H](Cc1ccccc1)NC(=O)[C@@H](NC(=O)CNC(=O)[C@H](CCC(=O)O)NC(=O)[C@H](C)NC(=O)[C@@H](Cc1ccc(O)cc1)NC(C)=O)[C@@H](C)O)[C@@H](C)CC)[C@@H](C)CC)C(=O)N[C@@H](CC(=O)O)C(=O)N[C@@H](CCCCN)C(=O)N[C@H](C(=O)N[C@@H](CCCNC(=N)N)C(=O)N[C@@H](CCC(N)=O)C(=O)N[C@@H](CCC(N)=O)C(=O)N[C@@H](CC(=O)O)C(=O)N[C@@H](Cc1ccccc1)C(=O)N[C@H](C(=O)N[C@@H](CCCCNC(=O)CC[C@H](NC(=O)CC[C@H](NC(=O)CC[C@H](NC(=O)C1CCC(CNC(=O)CCCCCCCCCCCCCCCCCCC(=O)O)CC1)C(=O)O)C(=O)O)C(=O)O)C(=O)N[C@@H](Cc1c[nH]c2ccccc12)C(=O)N[C@@H](CC(C)C)C(=O)N[C@@H](CC(C)C)C(=O)N[C@@H](C)C(=O)N[C@@H](CCC(N)=O)C(=O)N[C@@H](CCCCN)C(=O)NCC(=O)O)C(C)C)[C@@H](C)CC (stereo partly drawn) [Compound 8, N{1}-acetyl,N{Epsilon-24}-[(4S)-4-carboxy-4-[[(4S)-4-carboxy-4-[[(4S)-4-carboxy-4-[[4-[(19-carboxynonadecanoylamino)methyl]cyclohexanecarbonyl]amino]-butanoyl]amino]butanoyl]amino]butanoyl]-[D-Tyr1,Nle14,Arg18,Lys24]-hGIP(1-31)]",106,
"H-Y[Aib]EGTFISDYSIALDKIHQQDFVK([AEEA-AEEA-γGlu-C18 diacid])WLLAQKGKKNDWKHNITQ [Compound 45, N{Epsilon-24}-[2-[2-[2-[[2-[2-[2-[[(4S)-4-carboxy-4-(17-carboxyheptadecanoylamino)butanoyl]amino]ethoxy]ethoxy]acetyl]amino]ethoxy]ethoxy]acetyl]-[Aib2,Leu14,Lys24]-hGIP]",,10.25

# Source: US11633459B2, “GIP derivatives and uses thereof” (priority 2018, dated 2023)
